Patent US9228999B2, “Method for screening active agents that stimulate the expression of CERT to improve the skin's barrier function” (CHANEL PARFUMS BEAUTE, priority 2009, dated 2016)

Test system: CERT mRNA
Assay: Test for screening active agents by real-time RT-PCR: expression of CERT mRNA in keratinocytes
Type: cell-based
Settings: normal human keratinocytes (neonatal foreskin), 24 hours incubation, concentration 0.0005%, number of times of increase vs untreated (1.0), normalized to RPLPO
Method: The effect of two active agents on the expression of the mRNA of CERT was evaluated in keratinocytes. Keratinocytes derived from neonatal foreskins (Cascade Biologics/Invitrogen, Portland, Oreg., USA) are inoculated in 6-well plates and cultured in keratinocyte growth culture medium (Epilife, Invitrogen), i.e. a modified culture medium supplemented with EDGS. After culturing for 24 hours in an incubator at 37° C., the 70%-80% confluent cells are washed with PBS buffer (Invitrogen) and incubated with basic medium (Epilife, Invitrogen) containing the active agent to be tested, for 24 hours and in triplicate, at increasing concentrations. After studying the cytotoxicity of the active agent, its activity is evaluated. To quantify the expression of CERT messenger RNA in a treated sample relative to an untreated sample, first the RNA is isolated using the RNeasy reagent kit (Qiagen, CA, USA) and then quantified using the QuantIt kit (Invitrogen). Reverse transcription is performed using the gene Amp RNA PCR kit (Applied Biosystems) according to the manufacturer's recommendations. The real-time PCR measurement is performed using the iCYCLER IQ machine (Bio-Rad, CA, USA) with Taqman probes. […] The relative quantification of the expression of the target gene is performed using the Pfaffl mathematical model (Pfaffl, MW, Nucleic Acids Res. 29(9), p. […], 2001). […]

| SMILES | Stimulation of CERT mRNA |
| --- | --- |
| O=C(O)CCCC[C@@H]1CCSS1 (racemic) [Lipoic acid] | 2.0 |
| Oc1ccc(C=Cc2cc(O)cc(O)c2)cc1 [Resveratrol] | 2.4 |
